From ChEMBL document CHEMBL3046580, “Synthesis of Some 2-Aryloxymethyl-1, 3, 4-thiadiazolo[2, 3-b]-quinazolin-4-ones and 2-Aryloxymethyl-5-substituted-1, 3, 4-thiadiazolo[3, 2-a]-s-triazin-7-thiones as Potential Biocides” (1990)

Experiments:
Type in all cases: functional
Aspergillus niger [1] = test: Antifungal activity against Aspergillus niger assessed as fungus colony inhibition at 1000 ppm measured after 96 hr by agar dilution method
Bipolaris oryzae [2] = test: Antifungal activity against Bipolaris oryzae assessed as fungus colony inhibition at 1000 ppm measured after 96 hr by agar dilution method
Aspergillus niger [3] = test: Antifungal activity against Aspergillus niger assessed as fungus colony inhibition at 100 ppm measured after 96 hr by agar dilution method
Abutilon theophrasti = test: Herbicidal activity against Abutilon theophrasti (velvetleaf) assessed as killing at 6 kg/ha by post-emergent activity assay
Sorghum halepense = test: Herbicidal activity against Sorghum halepense (Johnson grass) assessed as killing at 6 kg/ha by post-emergent activity assay
Setaria viridis = test: Herbicidal activity against Setaria viridis (green foxtail) assessed as killing at 6 kg/ha by post-emergent activity assay
Aspergillus niger [4] = test: Antifungal activity against Aspergillus niger assessed as fungus colony inhibition at 10 ppm measured after 96 hr by agar dilution method
Bipolaris oryzae [5] = test: Antifungal activity against Bipolaris oryzae assessed as fungus colony inhibition at 10 ppm measured after 96 hr by agar dilution method
Bipolaris oryzae [6] = test: Antifungal activity against Bipolaris oryzae assessed as fungus colony inhibition at 100 ppm measured after 96 hr by agar dilution method
Triticum aestivum = test: Herbicidal activity against Triticum aestivum (wheat) assessed as killing at 6 kg/ha by post-emergent activity assay
Echinochloa crus-galli = test: Herbicidal activity against Echinochloa crus-galli (barnyard grass) assessed as killing at 6 kg/ha by post-emergent activity assay

| SMILES | inhibition at 1000 ppm (Aspergillus niger [1]) | inhibition at 1000 ppm (Bipolaris oryzae [2]) | inhibition at 100 ppm (Aspergillus niger [3]) | Activity (Abutilon theophrasti) | Activity (Sorghum halepense) | Activity (Setaria viridis) | inhibition at 10 ppm (Aspergillus niger [4]) | inhibition at 10 ppm (Bipolaris oryzae [5]) | inhibition at 100 ppm (Bipolaris oryzae [6]) | Activity (Triticum aestivum) | Activity (Echinochloa crus-galli) |
| --- | --- | --- | --- | --- | --- | --- | --- | --- | --- | --- | --- |
| O=c1c2ccccc2nc2sc(COc3ccccc3Cl)nn12 | 51.3% | 61.4% | 30.2% | 20% | 40% | 70% | 19.2% | 30.8% | 40.1% | 60% | 20% |
| S=c1nc(COc2ccc(Cl)cc2Cl)n2nc(COc3ccc(Cl)cc3Cl)sc2n1 | 88.6% | 90.4% | 74.4% | 100% | 100% | 100% | 64.5% | 61.4% | 78.6% | 20% | 100% |
| S=c1nc(COc2ccc(Cl)cc2Cl)n2nc(COc3ccc(Cl)cc3)sc2n1 | 87.2% | 88.2% | 74.2% | 30% | 40% | 20% | 68.4% | 60.6% | 75.4% | 50% | 30% |
| Cc1ccc(OCc2nn3c(-c4ccc(Cl)cc4)nc(=S)nc3s2)c(C)c1 | 52.3% | 60% | 31.4% | 90% | 80% | 90% | 20.4% | 31.2% | 49.1% | 0% | 90% |
| Cc1ccc(OCc2nn3c(C)nc(=S)nc3s2)c(C)c1 | 51.4% | 59.5% | 30% | 20% | 60% | 10% | 18.6% | 27.4% | 39.3% | 50% | 40% |
| O=C(COc1ccc(Cl)cc1Cl)NC(=S)Nc1nnc(COc2ccc(Cl)cc2)s1 | 47% | 57.2% | 25.4% | – | – | – | 13% | 24.2% | 36.2% | – | – |
| O=C(COc1ccc(Cl)cc1Cl)NC(=S)Nc1nnc(COc2ccc(Cl)cc2Cl)s1 | 46.4% | 54% | 25.2% | – | – | – | 12.4% | 21.9% | 32% | – | – |
| Cc1ccc(OCc2nnc(NC(=S)NC(=O)c3ccc(Cl)cc3)s2)c(C)c1 | 50.3% | 55.2% | 29% | – | – | – | 18.4% | 22.8% | 32.4% | – | – |
| CC(=O)NC(=S)Nc1nnc(COc2ccc(C)cc2C)s1 | 55.2% | 60.2% | 31.4% | – | – | – | 20.5% | 20.2% | 38.4% | – | – |
| O=c1c2ccccc2nc2sc(COc3ccc(Cl)cc3Cl)nn12 | 43.1% | 54.4% | 25% | 20% | 60% | 30% | 12.6% | 23.4% | 31.8% | 50% | 80% |
| Cc1ccc(OCc2nn3c(=O)c4ccccc4nc3s2)cc1 | 46% | 56.2% | 25.4% | 10% | 50% | 40% | 13.7% | 25.2% | 35% | 40% | 10% |
| Cc1ccc(OCc2nn3c(=O)c4ccccc4nc3s2)cc1C | 42.2% | 50.2% | 24.4% | 50% | 60% | 50% | 12.8% | 21.3% | 38.6% | 40% | 50% |
| O=C(O)c1ccccc1Nc1nnc(COc2ccccc2Cl)s1 | 47.3% | 52.4% | 25.8% | – | – | – | 14% | 22.2% | 30.4% | – | – |
| Cc1ccc(OCc2nnc(Nc3ccccc3C(=O)O)s2)cc1 | 52.2% | 59.1% | 31% | – | – | – | 20.9% | 22.2% | 39.1% | – | – |
| O=C(O)c1ccccc1Nc1nnc(COc2ccc(Cl)cc2Cl)s1 | 84.8% | 87.4% | 73% | – | – | – | 68.5% | 60.8% | 75.3% | – | – |
| Cc1ccc(OCc2nnc(Nc3ccccc3C(=O)O)s2)cc1C | 50.2% | 57.4% | 29.1% | – | – | – | 19% | 25.2% | 30.4% | – | – |
| COC(=O)Nc1nc2ccccc2[nH]1 [CARBENDAZIM] | 98.8% | 98% | 84.4% | – | – | – | 78.6% | 78.3% | 85.2% | – | – |
